# Values quoted from earlier work, collected in US20100322880A1, “UVA FILTERS BASED ON ASCORBIC ACID DERIVATIVES” (Merck Patent GmbH, priority 2008, published 2010).
# Test system: prolyl-4-hydroxylase
# Settings: for supporting the activity of the enzyme prolyl-4-hydroxylase: literature statement, no figures
Compound,supporting the activity of the enzyme prolyl-4-hydroxylase,affinity to the enzyme (disubstituted compared with the monosubstituted compound)
CC(=O)Oc1ccccc1C(=O)OC[C@H](O)[C@H]1OC(=O)C(O)=C1O [O^6-(2-acetoxybenzoyl) L-ascorbate],capable of supporting the activity,
CC(=O)Oc1ccccc1C(=O)OC[C@H](OC(=O)c1ccccc1OC(C)=O)[C@H]1OC(=O)C(O)=C1O [O^5O^6-bis(2-acetoxybenzoyl) L-ascorbate],capable of supporting the activity,lower affinity
